From US20170073337A1, “DIHYDROTHIAZINE AND DIHYDROOXAZINE DERIVATIVES HAVING BACE1 INHIBITORY ACTIVITY” (Shionogi & Co., Ltd., priority 2014, published 2017)
Values after ≈ are worked out from the molar mass of the structure shown. Like-named read-outs stand apart in the source and are kept apart here.

Key:
Recombinant human BACE1 = biological target: T1, Recombinant human BACE1 (Homo sapiens, UniProt P56817); test: Assay of BACE1 inhibitory activity: 96-well; type: biochemical; settings: Assay format 96-well
T1 construct: purchased R&D Systems
Protocol: 48.5 μL of substrate peptide solution (Biotin-XSEVNLDAEFRHDSGC-Eu: X=ε-amino-n-capronic acid. Eu=Europium cryplate) was added to each well of 96-hole half-area plate (a black plate: Costar), and after addition of 0.5 μl of the compound of the present invention (DMSO solution) and 1 μl of Recombinant human BACE1(R&D Systems), the reaction mixture was incubated at 30° C. for 3.5 hours. The substrate peptide was synthesized by reacting Cryptate TBPCOOH mono SMP (CIS bio international) with Biotin-XSEVNLDAEFRHDSGC (Peptide Institute, Inc.).
After the incubation for reaction, 50 μl of 8.0 μg/ml Streptavidin-XL665 (CIS bio international) dissolved in phosphate buffer (150 mmol/L […]—KH2PO4, pH 7.0, 0.008% Triton X-100, 0.8 mol/L KF) was added to each well and left stand at 30° C. for 45 minutes.

[1] = tested on: Aβ production in neuroblastoma SH-SY5Y cells (SH/APPwt); test: β-amyloid (Aβ) production inhibitory effect in cell: 96-well; type: cell-based; settings: Homo sapiens, Assay format 96-well
Protocol: Neuroblastoma SH-SY5V cells (SH/APPwt) with human wild-type R-APP excessively expressed therein were prepared at 8×10^5 cells/mL, and 150 μl portions thereof were inoculated into each well of a 96-well culture plate (Falcon). The cells were cultured for 2 hours at […]. in a 5% gaseous carbon dioxide incubator. […] Namely, the final DMSO concentration was 1%, and the amount of the cell culture was 200 μl. After the incubation was performed for 24 hours from the addition of the test compound, 100 μl of the culture supernatant was collected from each fraction. The amount of the Aβ in each fraction was measured. The Aβ amount was measured as follows. 10 μl of a homogeneous time resolved fluorescence (HTRF) measurement reagent (Amyloid β1-40 peptide: CIS bio international) and 10 μof the culture supernatant were put into a 384-well half area microplate (black microplate, Costar) and mixed with each other, and then left standing overnight at 4° C. while the light was shielded.

CYP1A2 = biological target: T2, CYP1A2 (Homo sapiens, UniProt P05177); test: CYP inhibition test (CYP1A2); type: in vitro ADME; settings: pooled human liver microsomes; 7-ethoxyresorufin O-deethylation
T2 construct: The commercially available pooled human liver microsomes are used as an enzyme resource; from tissue; host or cells: pooled human liver microsomes
T2 sequence (P05177 1-516): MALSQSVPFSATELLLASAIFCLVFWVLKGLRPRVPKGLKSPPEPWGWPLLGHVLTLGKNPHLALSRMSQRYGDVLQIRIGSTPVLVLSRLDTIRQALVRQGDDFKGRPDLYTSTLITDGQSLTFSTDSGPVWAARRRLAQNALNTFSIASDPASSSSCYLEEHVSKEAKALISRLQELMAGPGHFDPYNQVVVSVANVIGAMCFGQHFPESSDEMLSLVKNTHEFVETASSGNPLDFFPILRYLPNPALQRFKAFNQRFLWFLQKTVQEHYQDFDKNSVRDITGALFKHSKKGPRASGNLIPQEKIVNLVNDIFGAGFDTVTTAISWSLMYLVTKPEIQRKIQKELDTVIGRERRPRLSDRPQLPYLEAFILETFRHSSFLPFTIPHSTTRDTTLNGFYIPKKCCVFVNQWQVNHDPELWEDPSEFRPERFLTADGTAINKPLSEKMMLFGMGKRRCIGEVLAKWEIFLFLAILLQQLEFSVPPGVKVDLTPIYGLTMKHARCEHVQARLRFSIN
Summary of the method: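 Inhibition of CYP1A2 was measured in commercially available pooled human liver microsomes (0.2 mg protein/mL) using 7-ethoxyresorufin O-deethylation with 0.5 μmol/L ethoxyresorufin. Test compound at 1, 5, 10, 20 μmol/L in […] Hepes buffer was incubated at 37° C. after NADPH addition; methanol/acetonitrile=1/1 (v/v) stopped the reaction, and resorufin was read fluorescently.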

CYP2C9 = biological target: T3, CYP2C9 (Homo sapiens, UniProt P11712); test: CYP inhibition test (CYP2C9); type: in vitro ADME; settings: pooled human liver microsomes; tolbutamide methyl-hydroxylation
T3 construct: The commercially available pooled human liver microsomes are used as an enzyme resource; from tissue; host or cells: pooled human liver microsomes
Summary of the method: (§1)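 Metabolite formation was quantified by LC/MS/MS: dextrorphan (2D6, 5 μmol/L dextromethorphan), terfenadine alcohol (3A4, 1 μmol/L terfenadine), 4′-hydroxymephenytoin (2C19, 50 μmol/L S-mephenytoin) and hydroxytolbutamide (2C9, 100 μmol/L tolbutamide). Reactions used NADPH-started pooled human liver microsomes (0.2 mg/mL) at 37 °C with compound at 1–20 μmol/L (four points). IC50 was calculated by logistic model relative to the DMSO control.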

CYP2C19 = biological target: T4, CYP2C19 (Homo sapiens, UniProt P33261); test: CYP inhibition test (CYP2C19); type: in vitro ADME; settings: pooled human liver microsomes; mephenytoin 4′-hydroxylation
T4 construct: The commercially available pooled human liver microsomes are used as an enzyme resource; from tissue; host or cells: pooled human liver microsomes
Summary of the method: as §1

CYP3A4 = biological target: T5, CYP3A4 (Homo sapiens, UniProt P08684); test: CYP inhibition test (CYP3A4); type: in vitro ADME; settings: pooled human liver microsomes; terfenadine hydroxylation
T5 construct: The commercially available pooled human liver microsomes are used as an enzyme resource; from tissue; host or cells: pooled human liver microsomes
Summary of the method: as §1

Solubility test = type: physicochemical; settings: kinetic from dmso stock; for solubility kinetic at 16 h: 25 °C
Summary of the method: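 Dissolved concentration determined by LC/MS or SPE/MS (absolute calibration) in diluted filtrates, after 2 μL of 10 mmol/L DMSO stock was added to 198 μL JP 1st or JP 2nd fluid and equilibrated either 1 h with shaking at room temperature or 16 h standing at 25 °C.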

[2] = biological target: T6, human ether-a-go-go related gene (hERG) channel (Homo sapiens, UniProt Q12809); test: hERG test; type: cell-based; settings: % inhibition of IKr tail peak current at 3 uM; CHO cells expressing hERG
T6 construct: expressed in transfected cells; host or cells: CHO cells
Summary of the method: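 Automated whole-cell patch clamp was run on CHO cells carrying human hERG, held at −80 mV. Current was recorded during the −50 mV repolarization (2 s) that followed a 2 s +20 mV step, after a −50 mV leak pulse.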

CYP2D6 = biological target: T7, CYP2D6 (Homo sapiens, UniProt P10635); test: CYP inhibition test (CYP2D6); type: in vitro ADME; settings: pooled human liver microsomes; dextromethorphan O-demethylation
T7 construct: The commercially available pooled human liver microsomes are used as an enzyme resource; from tissue; host or cells: pooled human liver microsomes
From the text: The CYP inhibition test is a test to assess the inhibitory effect of a compound of the present invention towards typical substrate metabolism reactions on CYP enzymes in human liver microsomes. The marker reactions on human main five CYP enzymes (CYP1A2, 2C9, 2C19, 2D6, and 3A4) are used as follows: 7-ethoxyresorufin O-deethylation (CYP1A2), tolbutamide methyl-hydroxylation (CYP2C9), mephenytoin 4′-hydroxylation (CYP2C19), dextromethorphan O-demethylation (CYP2D6), and terfenadine hydroxylation (CYP3A4). The commercially available pooled human liver microsomes are used as an enzyme resource.
The reaction conditions were as follows: substrate, 0.5 μmol/L ethoxyresorufin (CYP1A2), 100 μmol/L tolbutamide (CYP2C9), 50 μmol/L, S-mephenytoin (CYP2C19), 5 μmol/L dextromethorphan (CYP2D6), 1 μmol/L terfenadine (CYP3A4): reaction time, 15 minutes: reaction temperature, 37° C.; enzyme, pooled human liver microsomes 0.2 mg protein/mL; concentrations of the compound of the present invention, 1, 5, 10, 20 μmol/L (four points).
Five kinds of substrates, human liver microsomes, and a compound solution of the present invention in […] Hepes buffer were added to a 96-well plate at the composition as described above as a reaction solution. NADPH as a cofactor was added to this 96-well plate in order to initiate metabolism reactions. After the incubation at 37° C.for […], a methanol/acetonitrile=1/1 (v/v) solution was added to stop the reaction. After the centrifugation at 3000 rpm for 15 minutes, resorufin (CYP1A2 metabolite) in the supernatant was quantified by a fluorescent plate reader, and hydroxytolbutamide (CYP2C9 metabolite), 4′-hydroxymephenytoin (CYP2C19 metabolite), dextrorphan (CYP2D6 metabolite), and terfenadine alcohol metabolite (CYP3A4 metabolite) in the supernatant were quantified by LC/MS/MS.
The sample adding DMSO to a reaction system instead of compound of the present invention solution was adopted as a control (100%) because DMSO was used as a solvent to dissolve a compound of the present invention. Remaining activity (%) was calculated at each concentration of a compound of the present invention, and IC50 value was calculated by reverse presumption by a logistic model using a concentration and an inhibition rate.

Metabolic stability test = type: in vitro ADME; settings: human liver microsomes, 37° C., 30 minutes, NADPH
Summary of the method: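 Parent compound was measured by LC/MS/MS or SPE/MS after a methanol/acetonitrile quench and reported as % remaining, with the 0 min sample set to 100%. Incubations ran 30 min at 37 °C in pH 7.4 Tris buffer containing pooled human liver microsomes at 0.5 mg protein/mL and 1 mmol/L NADPH.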

[3] = JP 1st fluid, pH 1.2, simulated gastric fluid, read-out: JP1
[4] = JP 2nd fluid A, pH 6.8, aqueous buffer, read-out: JP2_μM

T3 sequence (P11712 whole entry): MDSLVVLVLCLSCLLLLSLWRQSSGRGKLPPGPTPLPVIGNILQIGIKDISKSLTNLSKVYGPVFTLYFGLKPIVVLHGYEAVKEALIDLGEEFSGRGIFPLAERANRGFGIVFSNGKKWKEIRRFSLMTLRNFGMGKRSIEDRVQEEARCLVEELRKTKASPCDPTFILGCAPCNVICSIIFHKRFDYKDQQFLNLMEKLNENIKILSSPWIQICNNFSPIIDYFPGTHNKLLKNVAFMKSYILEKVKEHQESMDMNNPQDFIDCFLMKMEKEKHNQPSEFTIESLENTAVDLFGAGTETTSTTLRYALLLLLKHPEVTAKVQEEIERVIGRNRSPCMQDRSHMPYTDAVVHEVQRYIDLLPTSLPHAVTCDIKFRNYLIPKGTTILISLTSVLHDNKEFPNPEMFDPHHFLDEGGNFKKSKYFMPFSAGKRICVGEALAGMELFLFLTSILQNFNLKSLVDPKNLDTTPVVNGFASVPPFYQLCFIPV
T4 sequence (P33261 whole entry): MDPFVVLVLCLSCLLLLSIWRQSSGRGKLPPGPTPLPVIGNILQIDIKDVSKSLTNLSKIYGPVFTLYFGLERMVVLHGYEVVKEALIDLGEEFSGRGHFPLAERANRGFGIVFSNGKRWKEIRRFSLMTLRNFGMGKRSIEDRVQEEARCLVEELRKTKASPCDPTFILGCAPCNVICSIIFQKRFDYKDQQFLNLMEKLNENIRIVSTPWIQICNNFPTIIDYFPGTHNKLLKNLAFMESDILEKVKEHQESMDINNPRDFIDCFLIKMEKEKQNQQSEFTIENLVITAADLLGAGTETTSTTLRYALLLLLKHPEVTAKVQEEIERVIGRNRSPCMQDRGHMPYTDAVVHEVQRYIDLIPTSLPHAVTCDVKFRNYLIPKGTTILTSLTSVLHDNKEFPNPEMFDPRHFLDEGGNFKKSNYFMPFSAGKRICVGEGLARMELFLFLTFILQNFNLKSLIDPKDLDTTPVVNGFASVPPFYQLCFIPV
T6 sequence (Q12809 whole entry): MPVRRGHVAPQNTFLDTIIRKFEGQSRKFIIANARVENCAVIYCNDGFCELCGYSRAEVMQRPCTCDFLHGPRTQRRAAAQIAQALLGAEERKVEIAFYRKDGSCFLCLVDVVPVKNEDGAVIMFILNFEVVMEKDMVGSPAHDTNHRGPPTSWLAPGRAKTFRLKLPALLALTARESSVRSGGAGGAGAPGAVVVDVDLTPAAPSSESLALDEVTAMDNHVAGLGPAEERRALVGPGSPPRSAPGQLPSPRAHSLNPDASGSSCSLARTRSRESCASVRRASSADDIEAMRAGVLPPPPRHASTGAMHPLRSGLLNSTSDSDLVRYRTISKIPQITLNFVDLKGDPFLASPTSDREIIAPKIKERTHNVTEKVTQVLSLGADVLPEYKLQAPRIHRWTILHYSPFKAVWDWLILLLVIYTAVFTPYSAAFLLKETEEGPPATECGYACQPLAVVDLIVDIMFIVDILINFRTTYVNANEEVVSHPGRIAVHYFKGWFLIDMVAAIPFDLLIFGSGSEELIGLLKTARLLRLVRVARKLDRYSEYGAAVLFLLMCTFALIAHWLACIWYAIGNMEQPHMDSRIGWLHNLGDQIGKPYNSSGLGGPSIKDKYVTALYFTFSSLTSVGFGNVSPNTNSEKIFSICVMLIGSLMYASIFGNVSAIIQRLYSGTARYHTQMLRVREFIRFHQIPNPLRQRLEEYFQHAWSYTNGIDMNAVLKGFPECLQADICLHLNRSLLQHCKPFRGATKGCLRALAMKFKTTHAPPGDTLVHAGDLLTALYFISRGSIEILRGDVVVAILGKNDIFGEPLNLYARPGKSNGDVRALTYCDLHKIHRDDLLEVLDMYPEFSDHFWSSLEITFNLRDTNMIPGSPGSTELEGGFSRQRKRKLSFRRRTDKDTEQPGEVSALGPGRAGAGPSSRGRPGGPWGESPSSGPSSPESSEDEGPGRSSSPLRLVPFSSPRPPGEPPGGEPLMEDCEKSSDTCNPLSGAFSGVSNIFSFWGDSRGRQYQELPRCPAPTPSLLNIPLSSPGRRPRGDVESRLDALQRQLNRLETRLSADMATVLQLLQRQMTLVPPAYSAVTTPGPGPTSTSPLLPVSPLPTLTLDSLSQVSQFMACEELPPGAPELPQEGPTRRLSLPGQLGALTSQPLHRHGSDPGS
T5 sequence (P08684 whole entry): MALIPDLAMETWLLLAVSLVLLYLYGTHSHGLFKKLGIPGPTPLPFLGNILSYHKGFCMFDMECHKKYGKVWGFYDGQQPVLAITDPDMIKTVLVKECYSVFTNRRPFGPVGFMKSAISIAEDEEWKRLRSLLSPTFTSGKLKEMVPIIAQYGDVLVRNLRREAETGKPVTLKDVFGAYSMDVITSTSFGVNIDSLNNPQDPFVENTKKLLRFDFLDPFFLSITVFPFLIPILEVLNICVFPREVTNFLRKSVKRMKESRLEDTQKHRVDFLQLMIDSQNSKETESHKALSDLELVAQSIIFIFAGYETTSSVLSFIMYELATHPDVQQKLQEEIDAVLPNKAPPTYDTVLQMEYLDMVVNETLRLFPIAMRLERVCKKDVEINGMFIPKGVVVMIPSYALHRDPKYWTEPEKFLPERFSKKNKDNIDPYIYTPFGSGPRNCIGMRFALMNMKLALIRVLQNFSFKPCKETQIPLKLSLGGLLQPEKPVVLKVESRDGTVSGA
T7 sequence (P10635 whole entry): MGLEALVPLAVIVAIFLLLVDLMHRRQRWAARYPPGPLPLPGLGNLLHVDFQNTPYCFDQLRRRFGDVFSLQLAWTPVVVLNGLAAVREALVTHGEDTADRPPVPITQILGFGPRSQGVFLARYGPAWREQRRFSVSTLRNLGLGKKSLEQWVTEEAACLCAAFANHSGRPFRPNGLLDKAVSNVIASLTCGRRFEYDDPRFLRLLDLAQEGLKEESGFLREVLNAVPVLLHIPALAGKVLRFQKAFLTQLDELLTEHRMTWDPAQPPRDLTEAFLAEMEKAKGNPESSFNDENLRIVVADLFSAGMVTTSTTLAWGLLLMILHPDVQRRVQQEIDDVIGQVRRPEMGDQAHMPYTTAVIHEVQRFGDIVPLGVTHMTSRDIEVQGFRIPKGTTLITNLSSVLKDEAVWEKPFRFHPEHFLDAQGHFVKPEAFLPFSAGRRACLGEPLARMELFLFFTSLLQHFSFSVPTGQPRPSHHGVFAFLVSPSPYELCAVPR
T1 sequence (P56817 46-501): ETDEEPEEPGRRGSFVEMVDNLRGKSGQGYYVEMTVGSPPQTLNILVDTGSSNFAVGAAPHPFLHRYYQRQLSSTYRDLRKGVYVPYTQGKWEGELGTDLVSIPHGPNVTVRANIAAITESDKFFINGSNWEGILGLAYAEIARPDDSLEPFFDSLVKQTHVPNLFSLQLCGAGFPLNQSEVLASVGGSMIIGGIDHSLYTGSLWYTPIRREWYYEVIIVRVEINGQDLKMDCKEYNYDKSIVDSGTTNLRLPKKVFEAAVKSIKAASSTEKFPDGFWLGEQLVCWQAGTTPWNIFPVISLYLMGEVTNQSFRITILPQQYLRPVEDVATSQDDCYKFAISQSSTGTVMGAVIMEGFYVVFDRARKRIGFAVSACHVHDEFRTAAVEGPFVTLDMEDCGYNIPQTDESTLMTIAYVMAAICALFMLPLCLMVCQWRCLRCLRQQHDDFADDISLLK

Compound	IC50 (Recombinant human BACE1) [µM]	IC50 [1] [µM]	IC50 (CYP1A2) [µM]	IC50 (CYP2C9) [µM]	IC50 (CYP2C19) [µM]	IC50 (CYP3A4) [µM]	solubility kinetic at 16 h (Solubility test; [3]) [µM]	solubility kinetic at 16 h (Solubility test; [4]) [µM]	IC50 (CYP2D6) [µM]	remaining % (Metabolic stability test) [%]	solubility kinetic at 1 h (Solubility test; [3]) [µM]	solubility kinetic at 1 h (Solubility test; [4]) [µM]	hERG_3 uM_% [2] [%]
C[C@]1(c2nc(NC(=O)c3cnc(OCF)cn3)ccc2F)N=C(N)S[C@H](CF)[C@@H]1F [Compound I-5]	0.0299	0.00288	≥ 20	≥ 10	≥ 20	≥ 20	34.3 (≈ 15.2 µg/mL)	> 50					27.7
CO[C@H]1[C@@H](CF)OC(N)=N[C@]1(C)c1cc(NC(=O)c2ccc(Cl)cn2)ccc1Cl [Compound I-21]		0.00293	≥ 20	≥ 20	≥ 20	≥ 20	28.8 (≈ 12.7 µg/mL)	> 50					51.1
CO[C@H]1[C@@H](CF)OC(N)=N[C@]1(C)c1cc(NC(=O)c2ncc(Cl)cc2Cl)ccc1Cl [Compound I-22]	0.023	0.00422	≥ 20	≥ 20	≥ 20	≥ 20	31.2 (≈ 14.8 µg/mL)	> 50	≥ 10				14.2
CO[C@H]1[C@@H](CF)OC(N)=N[C@]1(C)c1cc(NC(=O)c2ncc(Cl)cc2Cl)ccc1F [Compound I-26]	0.0339	0.00176		≥ 20	≥ 20	≥ 20	41.9 (≈ 19.2 µg/mL)	> 50	≥ 20	76			29.6
CO[C@H]1[C@@H](C(F)(F)F)OC(N)=N[C@]1(C)c1cc(NC(=O)c2ccc(C#N)cn2)ccc1F [Compound I-34]	0.0165	0.00185	≥ 20	≥ 20	≥ 20	≥ 20	44.4 (≈ 20 µg/mL)	> 50	≥ 20				15.5
COc1cnc(C(=O)Nc2ccc(F)c([C@@]3(C)N=C(N)O[C@H]4[C@@H]3OCC4(F)F)c2)cn1 [Compound I-36]	0.022	0.00229	≥ 20	≥ 20	≥ 20	≥ 20			≥ 20		37.6 (≈ 16.4 µg/mL)	15.9 (≈ 6.95 µg/mL)	29.9

Now those with a lower IC50 [1], led by results:

IC50 (Recombinant human BACE1) [µM]	IC50 [1] [µM]	IC50 (CYP1A2) [µM]	IC50 (CYP2C9) [µM]	IC50 (CYP2C19) [µM]	IC50 (CYP3A4) [µM]	solubility kinetic at 16 h (Solubility test; [3]) [µM]	solubility kinetic at 16 h (Solubility test; [4]) [µM]	IC50 (CYP2D6) [µM]	remaining % (Metabolic stability test) [%]	solubility kinetic at 1 h (Solubility test; [3]) [µM]	solubility kinetic at 1 h (Solubility test; [4]) [µM]	Compound	hERG_3 uM_% [2] [%]
0.015	0.00129	≥ 20		≥ 10	≥ 20							C[C@]1(c2nc(NC(=O)c3ccc(Cl)cn3)ccc2F)N=C(N)S[C@H](CF)[C@@H]1F [Compound I-6]	
0.0344	0.00153	≥ 20	≥ 20	≥ 20	≥ 20	46.7 (≈ 19.8 µg/mL)	> 50	≥ 20	86.6			CO[C@H]1[C@@H](CF)OC(N)=N[C@]1(C)c1cc(NC(=O)c2ccc(Cl)cn2)ccc1F [Compound I-23]	
0.0218	0.000615	≥ 20	≥ 20	≥ 20	≥ 20	29.9 (≈ 12.8 µg/mL)	> 50	≥ 20	84.5			C[C@]1(c2cc(NC(=O)c3ccc(C#N)cn3)ccc2F)N=C(N)OCC12CC(F)(F)C2 [Compound I-43]	
